For data set [1], the system named is C57BL/6 mice with DSS colitis. In words: DSS colitis in C57BL/6 mice. On Clinical Score: key: −: indicates no statistically significant effect in the variable measured when compared with the control group; +: indicates a statistically significant difference in the variable measured when compared with the control group; ++: indicates measurements that include multiple variables in the calculation of their differences when compared with the control group, and represents the presence of significant changes across all variable measurements. On Colon Length: key: −: indicates no statistically significant effect in the variable measured when compared with the control group; +: indicates a statistically significant difference in the variable measured when compared with the control group; ++: indicates measurements that include multiple variables in the calculation of their differences when compared with the control group, and represents the presence of significant changes across all variable measurements. It counts as in vivo. The note with it: 25 mg/kg PO daily. The method, then:
Dextran sodium sulfate (DSS) was added to the water 24 hrs after compound administration and weight was measured daily.
C57BL/6 mice (20-22 grams) were fed ad lib and assigned to 4 different groups (n=8/group). […] A control group received vehicle alone. After 24 hrs, mice were weighed and DSS was added to their drinking water. Mice were then treated with the test compounds and weighed daily and the DSS water was replenished every 72 hrs for 5 days, at which point, it was replaced by regular drinking water. Mice were sacrificed on day twelve and clinical scored was assessed. Intestinal tissue for and blood were also collected. Tissues were either flash frozen and kept in −80° C. for RNA and protein isolation or placed in 10% formalin solution for future histological analysis. Blood was spun at 5K rpm for 5 min and serum was collected and kept at −20° C. for multiplex cytokine analysis.
DSS colitis mouse model: C57BL/6 mice (20-22 grains) are fed ad lib and assigned to different groups (n=8/group). […] A control group receives vehicle alone. After 24 h, mice are weighed and DSS is added to their drinking water. Mice are then treated with the test compounds and weighed daily and the DSS water is replenished every 72 liars for 5 days, at which point, it is replaced by regular drinking water. Mice are sacrificed on day twelve and clinical scored was assessed. Intestinal tissue for and blood are also collected. Tissues are either flash frozen and kept in −80° C. for RNA and protein isolation or placed in 10% formalin solution for future histological analysis.

A short description of data set [2]: In-vitro half-life in human liver microsomes. The data set is classed as in vitro ADME. The settings on record: Human liver microsomes 0.5 mg/mL; 1 μg/mL drug; NRS; read-out: Metabolic Half-life. The method, then: In each of the species (human, rat, mouse) of liver matrix to be tested, a working concentration of 2 μg/mL was prepared of each test article from the 0.5 mg/mL DMSO stock solution by adding 3 μL of 0.5 mg/mL test article stock solution to 747 μL of the 1 mg/mL liver matrix. Incubation was performed at 37±2° C. with gentle, continuous mixing in shaking water bath in 2.0 mL-well capacity 96-Deepwell plates (96-DWP). Samples were retrieved in duplicate at the following time points: 0, 5, 10, 15, 30 and 60 minutes. The final mixture contained 1 μg/mL of drug and 0.5 mg/mL of liver matrix. First, 50 μL of test articles in liver matrix was added to the 96-DWP and pre-warmed the mixture in the 96-DWP for 2 minutes in the 37° C. water bath. The enzymatic reaction was started by the addition of 50 μL of the corresponding 2× NADPH regenerating system (NRS) cofactor solution to all sample wells and stopped by the addition of 300 μL of stop solution (acetonitrile containing 10 ng/mL Tolbutamide as an internal standard (I.Std.). The samples were agitated for 10 minutes and then centrifuged for 20 minutes at 4500 rpm. 25 μL of supernatant was diluted with 475 μL acetonitrile containing I. Std. into a new 96-DWPs for LC-MS/MS analysis.
Half-life calculations were generated and calculated by Graphpad Prism® software. The half-life of test compound was calculated based on the first-order reaction kinetics. The data was transformed to linear regression (y=log(y) where “y” axis represents the % compound remaining at any given time with respect to time 0 minutes; “x” axis represents time in minutes) in order to calculate the half-life.
A comparison of metabolic stability in time-course incubation experiments in varying species of liver can provide information of pharmacokinetic properties of drugs attributable to species-related differences in hepatic metabolism. The results of these experiments often assist in further applications such as assessing in vitro metabolite profiling and choosing relevant species for toxicology studies based on similarities relative to the metabolic stability to the human profile. For these experiments, the test compound was tested in parallel with a positive control, Dasatinab, in an enzymatic reaction solution of each species (human and rat) of liver microsomes containing a NADPH regenerating system (NRS). The final mixture contained 1 μg/mL of drug and 0.5 mg/mL of liver matrix. Incubations were performed at 37±2° C. with gentle, continuous mixing in shaking water bath in 96-Deep well plates. The stability of the test compound is monitored using fast, specific and sensitive LC/MS/MS analysis.

By half-life is commonly meant the time in which the quantity being followed falls by half. Turning to `COc1cc2c(NCC3CCN(C)CC3)nc(N3CCC(F)(F)CC3)nc2cc1OCCCN1CCCC1` [Compound 5, 2-(4,4-difluoropiperidin-1-yl)-6-methoxy-N-((1-methylpiperidin-4-yl)methyl)-7-(3-(pyrrolidin-1-yl)propoxy)quinazolin-4-amine], in data set [1], the “effect on the effects of DSS colitis (in words)” value is listed as “alleviation of the effects of DSS colitis”. Besides, in data set [1] (day twelve), the “Colon Length” value is on record as “+”. Further, the “Clinical Score” value in data set [1] (day twelve, includes weight, bleeding, diarrhea, rectal prolapse) is recorded as “+”. For the same compound, the “DSS Efficacy” value in data set [1] (sacrificed day twelve) is reported as “+”. The half-life at 1 μg/mL in data set [2] is greater than 1 h.
With `COc1cc2c(NC3CCNCC3)nc(N3CCC(F)(F)CC3)nc2cc1OCCCN1CCCC1` [Compound 8, 2-(4,4-difluoropiperidin-1-yl)-6-methoxy-N-(piperidin-4-yl)-7-(3-(pyrrolidin-1-yl)propoxy)quinazolin-4-amine], the half-life at 1 μg/mL in data set [2] was greater than 1 h.
On the same count and under the same terms, the value for `COc1cc2c(NCC(N)=O)nc(N3CCC(F)(F)CC3)nc2cc1OCCCN1CCCC1` [Compound 9, 2-((2-(4,4-difluoropiperidin-1-yl)-6-methoxy-7-(3-(pyrrolidin-1-yl)propoxy)quinazolin-4-yl)amino)acetamide] was greater than 1 h.
On the same count and under the same terms, the value for `COc1cc2c(NC3COC3)nc(N3CCC(F)(F)CC3)nc2cc1OCCCN1CCCC1` [Compound 11, 2-(4,4-difluoropiperidin-1-yl)-6-methoxy-N-(oxetan-3-yl)-7-(3-(pyrrolidin-1-yl)propoxy)quinazolin-4-amine] was greater than 1 h.
On the same count and under the same terms, the value for `COc1cc2c(NC3CCS(=O)(=O)CC3)nc(N3CCCC3)nc2cc1OCCCN1CCCC1` [Compound 80, 4-((6-methoxy-2-(pyrrolidin-1-yl)-7-(3-(pyrrolidin-1-yl)propoxy)quinazolin-4-yl)amino)tetrahydro-2H-thiopyran 1,1-dioxide] was greater than 1 h; that for `COc1cc2c(NC3CCS(=O)(=O)CC3)nc(N3CCOCC3)nc2cc1OCCCN1CCCC1` [Compound 102, 4-((6-methoxy-2-morpholino-7-(3-(pyrrolidin-1-yl)propoxy)quinazolin-4-yl)amino)tetrahydro-2H-thiopyran 1,1-dioxide] was greater than 1 h.
For `COc1cc2c(NC3CCS(=O)(=O)CC3)nc(N3CCS(=O)(=O)CC3)nc2cc1OCCCN1CCCC1` [Compound 103, 4-(4-((1,1-dioxidotetrahydro-2H-thiopyran-4-yl)amino)-6-methoxy-7-(3-(pyrrolidin-1-yl)propoxy)quinazolin-2-yl)thiomorpholine 1,1-dioxide], the half-life at 1 μg/mL in data set [2] was greater than 1 h.
Same read-out and setting: for `COc1cc2c(NC3CCS(=O)(=O)CC3)nc(N3CCN(C)CC3)nc2cc1OCCCN1CCCC1` [Compound 109, 4-((6-methoxy-2-(4-methylpiperazin-1-yl)-7-(3-(pyrrolidin-1-yl)propoxy)quinazolin-4-yl)amino)tetrahydro-2H-thiopyran 1,1-dioxide] the value was 0.342 h; for `COc1cc2c(NC3CCS(=O)(=O)CC3)nc(N3CCCN(C)CC3)nc2cc1OCCCN1CCCC1` [Compound 110, 4-((6-methoxy-2-(4-methyl-1,4-diazepan-1-yl)-7-(3-(pyrrolidin-1-yl)propoxy)quinazolin-4-yl)amino)tetrahydro-2H-thiopyran 1,1-dioxide], greater than 1 h; for `COc1cc2c(Nc3ccncc3)nc(-n3ccnc3)nc2cc1OCCCN1CCCC1` [Compound 130, 2-(1H-imidazol-1-yl)-6-methoxy-N-(pyridin-4-yl)-7-(3-(pyrrolidin-1-yl)propoxy)quinazolin-4-amine], greater than 1 h.
`COc1cc2c(NC3CCN(C(C)C)CC3)nc(-n3cccn3)nc2cc1OCCCN1CCCC1` [Compound 157, N-(1-isopropylpiperidin-4-yl)-6-methoxy-2-(1H-pyrazol-1-yl)-7-(3-(pyrrolidin-1-yl)propoxy)quinazolin-4-amine]: the half-life at 1 μg/mL in data set [2] was greater than 1 h.
Same read-out and setting: for `COc1cc2c(N[C@H]3CCCNC3)nc(N3CCCC3)nc2cc1OCCCN1CCCC1` [Compound 158, (S)-6-methoxy-N-(piperidin-3-yl)-2-(pyrrolidin-1-yl)-7-(3-(pyrrolidin-1-yl)propoxy)quinazolin-4-amine] the value was greater than 1 h; for `COc1cc2c(N[C@@H]3CCCNC3)nc(N3CCCC3)nc2cc1OCCCN1CCCC1` [Compound 159, (R)-6-methoxy-N-(piperidin-3-yl)-2-(pyrrolidin-1-yl)-7-(3-(pyrrolidin-1-yl)propoxy)quinazolin-4-amine], greater than 1 h.
For `COc1cc2c(NC3CCOCC3)nc(N3CCOCC3)nc2cc1OCCCN1CCCC1` [Compound 195, 6-methoxy-2-morpholino-7-(3-(pyrrolidin-1-yl)propoxy)-N-(tetrahydro-2H-pyran-4-yl)quinazolin-4-amine], the half-life at 1 μg/mL in data set [2] was greater than 1 h.
On the same count and under the same terms, for `COc1cc2c(NC3CCOCC3)nc(N3CCS(=O)(=O)CC3)nc2cc1OCCCN1CCCC1` [Compound 196, 4-(6-methoxy-7-(3-(pyrrolidin-1-yl)propoxy)-4-((tetrahydro-2H-pyran-4-yl)amino)quinazolin-2-yl)thiomorpholine 1,1-dioxide] the value was greater than 1 h; for `COc1cc2c(NC3CCOCC3)nc(N3CCN(C)CC3)nc2cc1OCCCN1CCCC1` [Compound 236, 6-methoxy-2-(4-methylpiperazin-1-yl)-7-(3-(pyrrolidin-1-yl)propoxy)-N-(tetrahydro-2H-pyran-4-yl)quinazolin-4-amine], greater than 1 h.
On the same count and under the same terms, for `COc1cc2c(NC3CCOCC3)nc(N3CCCN(C)CC3)nc2cc1OCCCN1CCCC1` [Compound 237, 6-methoxy-2-(4-methyl-1,4-diazepan-1-yl)-7-(3-(pyrrolidin-1-yl)propoxy)-N-(tetrahydro-2H-pyran-4-yl)quinazolin-4-amine] the value was greater than 1 h; for `COc1cc2c(NC3CCS(=O)(=O)CC3)nc(N3CCC(F)(F)CC3)nc2cc1C#CCN1CCCC1` [Compound 248, 4-((2-(4,4-difluoropiperidin-1-yl)-6-methoxy-7-(3-(pyrrolidin-1-yl)prop-1-yn-1-yl)quinazolin-4-yl)amino)tetrahydro-2H-thiopyran 1,1-dioxide], 0.63 h.

The values above are taken from patent US11485728B2, “Small molecules for the treatment of autoimmune diseases and cancer” (Athos Therapeutics, Inc., priority 2020, dated 2022).
